These are literature values, as cited in US8962594B2, “Method of using nutritional compounds dihydroquercetin (taxifolin) and arabinogalactan in combination with dihydroquercetin (taxifolin) to reduce and control cardiometabolic risk factors associated with metabolic syndrome and hypercholesterolemia” (Flavitpure, Inc., priority 2012, dated 2015).

The subject of series [1] is RBCs. Conditions: pre-incubation of RBCs with water-soluble compound for 30 min; remaining hemolysis.
Series [2] deals with RBCs. Particulars: remaining hemolysis; vehicle 75.7±5.2%, P<0.001.
The test system of series [3] is RGC-5 cells. Conditions: read-out: EC50 for protection of RGC-5 cells from oxidative stress induced by GSH depletion.
The test system of series [4] is CNS-derived mouse HT22 cells. Conditions: read-out: EC50 for protection of HT22 cells from a similar insult.
Series [5] deals with Glutathione prexidase (GPx). Particulars: 25 and 50 μM.
Series [6] has as its system HepG2 cells. Particulars: 200 umol, within 24 h.
In series [7] the target is T1, HMG-CoA reductase (Homo sapiens, UniProt P04035).
T1 construct: endogenous in cells; host or cells: HepG2
T1 sequence (P04035 1-888): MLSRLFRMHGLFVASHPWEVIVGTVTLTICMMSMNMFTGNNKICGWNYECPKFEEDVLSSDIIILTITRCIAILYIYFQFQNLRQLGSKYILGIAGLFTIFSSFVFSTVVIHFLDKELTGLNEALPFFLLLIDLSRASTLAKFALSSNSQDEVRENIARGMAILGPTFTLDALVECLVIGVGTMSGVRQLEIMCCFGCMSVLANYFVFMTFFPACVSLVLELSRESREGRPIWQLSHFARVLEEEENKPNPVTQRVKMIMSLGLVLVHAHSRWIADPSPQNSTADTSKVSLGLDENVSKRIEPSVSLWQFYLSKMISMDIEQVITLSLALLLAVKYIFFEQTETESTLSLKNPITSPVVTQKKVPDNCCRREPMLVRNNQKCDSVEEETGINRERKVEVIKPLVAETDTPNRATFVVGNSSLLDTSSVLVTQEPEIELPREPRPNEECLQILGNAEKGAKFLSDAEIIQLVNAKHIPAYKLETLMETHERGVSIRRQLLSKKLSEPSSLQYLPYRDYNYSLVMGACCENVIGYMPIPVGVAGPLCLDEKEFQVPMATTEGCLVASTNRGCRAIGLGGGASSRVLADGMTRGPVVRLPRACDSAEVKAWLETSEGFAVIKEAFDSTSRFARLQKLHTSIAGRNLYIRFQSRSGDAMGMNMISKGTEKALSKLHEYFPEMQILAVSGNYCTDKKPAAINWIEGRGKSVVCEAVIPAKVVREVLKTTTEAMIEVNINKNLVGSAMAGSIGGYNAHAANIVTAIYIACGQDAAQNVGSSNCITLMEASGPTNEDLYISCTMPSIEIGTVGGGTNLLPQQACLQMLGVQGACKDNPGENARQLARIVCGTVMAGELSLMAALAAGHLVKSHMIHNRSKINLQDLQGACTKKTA

The subject of series [8] is apolipoprotein A-I (apoA-I). Particulars: pulse-chase, HepG2 cells.
Series [9] concerns apolipoprotein B (apoB).
In series [10] the test system is diacylglycerol acyltransferase (DGAT). Particulars: non-competitive.
In series [11] the target is T2, microsomal triglyceride transfer protein (MTP) (Homo sapiens, UniProt P55157).
T2 construct: endogenous in cells; host or cells: HepG2
T2 sequence (P55157 19-894): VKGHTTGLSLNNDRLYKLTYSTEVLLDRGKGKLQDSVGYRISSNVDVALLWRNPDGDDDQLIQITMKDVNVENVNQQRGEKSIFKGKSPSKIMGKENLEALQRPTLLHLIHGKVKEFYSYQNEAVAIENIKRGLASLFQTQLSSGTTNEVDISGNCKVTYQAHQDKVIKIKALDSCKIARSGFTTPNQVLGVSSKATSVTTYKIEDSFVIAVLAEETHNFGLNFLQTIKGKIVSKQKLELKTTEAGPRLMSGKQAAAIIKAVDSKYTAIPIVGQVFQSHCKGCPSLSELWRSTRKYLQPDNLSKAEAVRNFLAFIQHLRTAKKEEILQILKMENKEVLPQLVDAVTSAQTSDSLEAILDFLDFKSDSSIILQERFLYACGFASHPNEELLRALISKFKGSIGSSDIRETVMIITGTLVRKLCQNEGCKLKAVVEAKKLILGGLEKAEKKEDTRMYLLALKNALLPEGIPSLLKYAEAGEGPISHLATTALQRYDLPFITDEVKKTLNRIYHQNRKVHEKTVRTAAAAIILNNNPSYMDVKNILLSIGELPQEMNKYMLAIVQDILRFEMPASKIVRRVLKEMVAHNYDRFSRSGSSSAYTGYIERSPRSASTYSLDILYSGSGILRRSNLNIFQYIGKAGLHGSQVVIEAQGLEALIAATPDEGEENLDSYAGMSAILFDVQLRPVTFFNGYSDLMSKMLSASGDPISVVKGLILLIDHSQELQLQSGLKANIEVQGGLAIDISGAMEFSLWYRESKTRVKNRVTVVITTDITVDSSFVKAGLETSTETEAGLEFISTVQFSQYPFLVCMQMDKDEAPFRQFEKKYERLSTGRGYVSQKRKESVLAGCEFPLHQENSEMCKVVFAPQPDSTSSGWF

In series [12] the test system is DGAT-1 mRNA.
Series [13] has as its system DGAT-2 mRNA.
The test system of series [14] is PPARa. Conditions: supplementation of HepG2 cells.
The test system of series [15] is rats. Particulars: rats treated with high levels for long periods of time.
For series [16], the system named is microsomal TG synthesis.
Series [17] relates to TNF-α. Conditions: LPS-stimulated PBMC, pre-treated.
In series [18] the test system is IL-1β. Particulars: LPS-stimulated PBMC, pre-treated.

Each structure is given as a SMILES string.

For the molecule `O=C1c2c(O)cc(O)cc2OC(c2ccc(O)c(O)c2)C1O` (racemic) [Dihydroquercetin (taxifolin)], in series [1], the “peroxyl radical (AAPH)-induced hemolysis reduced to” value is on record as 32.5±5.6%. Further, the “phospholipase C-induced hemolysis” value in series [2] is 45.4±10.0%. Further, the EC50 (commonly the concentration needed to bring the measured effect to its halfway point) in series [3] was 30 µM; in [4] it was greater than 50 µM. In series [5], the “Glutathione prexidase (GPx) protein level” value is listed as “significantly increased”. Besides, in [6], the “inhibition of cholesterol synthesis” value was 86+−3%. The “inhibition of HMG-CoA reductase activity” value in series [7] is on record as 47+−7%. In addition, in series [8], the “increase of ApoA-I secretion” value was 36+−10%. In series [9] (basal and lipid-rich conditions, 200 micromol/L), the “reduction of apoB secretion” value was “up to 63%”. Besides, the “average reduction in labeled apoB in the medium” value in series [9] (pulse-chase, HepG2 cells) is given as 61+−8%. In addition, the “decrease in DGAT activity (change)” value in series [10] is −35%. In addition, in series [11], the “inhibition of MTP” value is 41%. Besides, the “DGAT-1 mRNA expression” value in series [12] is recorded as “essentially unchanged”. Besides, the “DGAT-2 mRNA expression” value in [13] is on record as “essentially unchanged”. For the same molecule, the PPARa expression entry in series [14] is “increase”. Besides, in series [15], the toxic effects entry was “No toxic effects”. The “TG transfer into the microsomal lumen (change)” value in series [16] is reported as −26%. In addition, in series [16], the “inhibition of microsomal TG synthesis” value is 37%.
Consider `O=C(O)Cc1ccc(O)c(O)c1` [3,4-DHPAA, 3,4-dihydroxyphenylacetic acid], for which the “mean inhibition of the secretion of TNF-α” value in [17] is listed as 86.4%. In [18], the “inhibition of IL-1β secretion” value is 97.9%.
